In general, IC50 refers to the concentration needed to halve the response being measured.

In the assay the target is EZH2 within the PRC2 complex (Homo sapiens (Human), UniProt Q15910). In words: EZH2 methyltransferase scintillation proximity assay (SPA) with PRC2 complex. It is filed as biochemical. Particulars: 3H-SAM methyl transfer to Histone H3 of HeLa mononucleosomes; 30 min preincubation, 1 hour reaction. The protocol:
Compounds contained herein were evaluated for their ability to inhibit the methyltransferase activity of EZH2 within the PRC2 complex. Human PRC2 complex was prepared by co-expressing each of the 5 member proteins (FLAG-EZH2, EED, SUZ12, RbAp48, AEBP2) in Sf9 cells followed by co-purification. Enzyme activity was measured in a scintillation proximity assay (SPA) where a tritiated methyl group is transferred from 3H-SAM to a lysine residue on Histone H3 of a mononucleosome, purified from HeLa cells. Mononucleosomes were captured on SPA beads and the resulting signal is read on a ViewLux plate reader.
Part A. Compound Preparation
• 1. Prepare 10 mM stock of compounds from solid in 100% DMSO. • 2. Set up an 11-point serial dilution (1:3 dilution, top concentration 10 mM) in 100% DMSO for each test compound in a 384 well plate leaving columns 6 and 18 for DMSO controls. • 3. Dispense 100 nL of compound from the dilution plate into reaction plates (Grenier Bio-One, 384-well, Cat #784075). Part B. Reagent Preparation Prepare the Following Solutions: • 1. 50 mM Tris-HCl, pH 8: Per 1 L of base buffer, combine 1 M Tris-HCl, pH 8 (50 mL) and distilled water (950 mL). • 2. 1× Assay Buffer: Per 10 mL of 1× Assay Buffer, combine 50 mM Tris-HCl, pH 8 (9958 uL), 1 M MgCl2 (20 uL), 2 M DTT (20 uL), and 10% Tween-20 (2 uL) to provide a final concentration of 50 mM Tris-HCl, pH 8, 2 mM MgCl2, 4 mM DTT, 0.002% Tween-20. • 3. 2× Enzyme Solution: Per 10 mL of 2× Enzyme Solution, combine 1× Assay Buffer and PRC2 complex to provide a final enzyme concentration of 10 nM. • 4. SPA Bead Suspension: Per 1 mL of SPA Bead Suspension, combine PS-PEI coated LEADSeeker beads (40 mg) and ddH2O (1 mL) to provide a final concentration of 40 mg/mL. • 5. 2× Substrate Solution: Per 10 mL of 2× Substrate Solution, combine 1× Assay Buffer (9728.55 uL), 800 ug/mL mononucleosomes (125 uL), 1 mM cold SAM (4 uL), and 7.02 uM 3H-SAM (142.45 uL; 0.55 mCi/mL) to provide a final concentration of 5 ug/mL nucleosomes, 0.2 uM cold SAM, and 0.05 uM 3H-SAM. • 6. 2.67× Quench/Bead Mixture: Per 10 mL of 2.67× Quench/Bead Mixture, combine ddH2O (9358 uL), 10 mM cold SAM (267 uL), 40 mg/mL Bead Suspension (375 uL) to provide a final concentration of 100 uM cold SAM and 0.5 mg/mL SPA beads. Part C. Assay Reaction in 384-Well Grenier Bio-One Plates Compound Addition • 1. Dispense 100 nL/well of 100× Compound to test wells (as noted above). • 2. Dispense 100 nL/well of 100% DMSO to columns 6 & 18 for high and low controls, respectively. Assay • 1. Dispense 5 uL/well of 1× Assay Buffer to column 18 (low control reactions). • 2. Dispense 5 uL/well of 2× Enzyme Solution to columns 1-17, 19-24. • 3. Spin assay plates for ˜1 minute at 500 rpm. • 4. Stack the assay plates, covering the top plate. • 5. Incubate the compound/DMSO with the enzyme for 30 minutes at room temperature. • 6. Dispense 5 uL/well of 2× Substrate Solution to columns 1-24. • 7. Spin assay plates for ˜1 minute at 500 rpm. • 8. Stack the assay plates, covering the top plate. • 9. Incubate the assay plates at room temperature for 1 hour. Quench/Bead Addition • 1. Dispense 5 uL/well of the 3× Quench/Bead Mixture to columns 1-24. • 2. Seal the top of each assay plate with adhesive TopSeal. • 3. Spin assay plates for ˜1 minute at 500 rpm. • 4. Equilibrate the plates for >20 min. Read Plates • 1. Read the assay plates on the Viewlux Plate Reader utilizing the 613 nm emission filter with a 300 s read time. Reagent addition can be done manually or with automated liquid handler. • The final DMSO concentration in this assay is 1%. • The positive control is in column 6; negative control is in column 18. • Final starting concentration of compounds is 100 μM. Results
Percent inhibition was calculated relative to the DMSO control for each compound concentration and the resulting values were fit using standard IC50 fitting parameters within the ABASE data fitting software package.
In general terms: In a scintillation proximity assay essentially only radioactivity close to the scintillant gives light.

Sequence of EZH2 within the PRC2 complex (Q15910 whole entry): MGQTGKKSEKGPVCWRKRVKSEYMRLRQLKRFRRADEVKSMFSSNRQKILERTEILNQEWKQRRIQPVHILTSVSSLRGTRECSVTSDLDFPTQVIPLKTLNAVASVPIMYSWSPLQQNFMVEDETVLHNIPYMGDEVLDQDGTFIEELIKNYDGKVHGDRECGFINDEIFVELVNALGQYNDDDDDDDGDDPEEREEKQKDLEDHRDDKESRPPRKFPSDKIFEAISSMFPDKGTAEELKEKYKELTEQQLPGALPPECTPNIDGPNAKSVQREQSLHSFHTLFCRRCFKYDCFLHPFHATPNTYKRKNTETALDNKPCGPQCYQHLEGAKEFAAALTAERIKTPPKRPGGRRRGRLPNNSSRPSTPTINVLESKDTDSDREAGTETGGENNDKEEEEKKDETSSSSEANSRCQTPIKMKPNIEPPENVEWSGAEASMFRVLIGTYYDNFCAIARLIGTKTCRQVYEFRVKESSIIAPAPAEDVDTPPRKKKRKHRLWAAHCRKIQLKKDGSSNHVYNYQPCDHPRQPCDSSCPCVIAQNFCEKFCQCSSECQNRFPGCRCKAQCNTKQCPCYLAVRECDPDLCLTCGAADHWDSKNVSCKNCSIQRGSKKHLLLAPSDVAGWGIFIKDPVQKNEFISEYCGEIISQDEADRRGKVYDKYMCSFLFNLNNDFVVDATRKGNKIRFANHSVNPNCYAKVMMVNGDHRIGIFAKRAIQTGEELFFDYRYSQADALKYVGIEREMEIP
Sequence of EZH2 within the PRC2 complex (O75530 whole entry partner): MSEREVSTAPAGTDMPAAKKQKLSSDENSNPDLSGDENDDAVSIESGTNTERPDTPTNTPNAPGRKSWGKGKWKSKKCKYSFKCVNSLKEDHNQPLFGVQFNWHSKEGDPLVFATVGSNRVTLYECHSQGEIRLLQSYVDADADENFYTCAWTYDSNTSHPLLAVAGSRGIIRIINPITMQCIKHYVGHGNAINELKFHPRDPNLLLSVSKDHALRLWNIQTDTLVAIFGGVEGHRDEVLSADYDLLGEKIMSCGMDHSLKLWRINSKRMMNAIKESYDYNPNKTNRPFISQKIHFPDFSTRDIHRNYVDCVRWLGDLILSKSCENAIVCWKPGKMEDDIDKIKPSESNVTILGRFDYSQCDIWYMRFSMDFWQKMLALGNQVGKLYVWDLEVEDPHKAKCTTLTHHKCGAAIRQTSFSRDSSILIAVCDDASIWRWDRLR
Sequence of EZH2 within the PRC2 complex (Q15022 whole entry partner): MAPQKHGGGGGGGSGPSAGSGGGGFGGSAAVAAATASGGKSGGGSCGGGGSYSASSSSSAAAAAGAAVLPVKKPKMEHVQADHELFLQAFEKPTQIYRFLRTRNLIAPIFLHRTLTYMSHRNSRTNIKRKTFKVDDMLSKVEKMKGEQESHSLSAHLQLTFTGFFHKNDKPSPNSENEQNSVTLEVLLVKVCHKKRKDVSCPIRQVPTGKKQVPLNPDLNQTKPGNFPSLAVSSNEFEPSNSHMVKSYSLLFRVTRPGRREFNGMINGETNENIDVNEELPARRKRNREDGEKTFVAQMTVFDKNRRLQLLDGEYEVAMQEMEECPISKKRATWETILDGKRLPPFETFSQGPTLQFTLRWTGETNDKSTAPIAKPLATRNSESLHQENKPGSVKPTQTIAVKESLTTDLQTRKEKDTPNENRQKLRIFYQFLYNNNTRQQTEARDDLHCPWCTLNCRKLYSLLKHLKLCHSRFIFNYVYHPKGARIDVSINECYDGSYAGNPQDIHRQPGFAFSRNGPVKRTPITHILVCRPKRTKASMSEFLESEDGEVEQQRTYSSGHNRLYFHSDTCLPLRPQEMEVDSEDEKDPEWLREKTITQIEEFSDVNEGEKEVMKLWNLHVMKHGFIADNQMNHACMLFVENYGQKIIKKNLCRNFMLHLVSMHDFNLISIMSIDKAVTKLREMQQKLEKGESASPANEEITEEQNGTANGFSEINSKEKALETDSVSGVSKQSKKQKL
Sequence of EZH2 within the PRC2 complex (Q09028 whole entry partner): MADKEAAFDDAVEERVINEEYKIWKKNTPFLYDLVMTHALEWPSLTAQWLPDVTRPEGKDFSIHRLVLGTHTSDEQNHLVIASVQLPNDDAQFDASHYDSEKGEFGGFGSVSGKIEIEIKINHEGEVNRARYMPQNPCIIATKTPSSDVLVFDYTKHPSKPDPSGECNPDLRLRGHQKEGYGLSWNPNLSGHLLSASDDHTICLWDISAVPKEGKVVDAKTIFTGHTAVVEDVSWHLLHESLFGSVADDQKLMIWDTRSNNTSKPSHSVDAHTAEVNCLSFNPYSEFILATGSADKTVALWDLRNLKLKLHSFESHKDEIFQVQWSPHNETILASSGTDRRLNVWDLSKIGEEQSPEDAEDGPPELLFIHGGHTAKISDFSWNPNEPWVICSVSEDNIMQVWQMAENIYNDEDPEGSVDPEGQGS
Sequence of EZH2 within the PRC2 complex (Q6ZN18 whole entry partner): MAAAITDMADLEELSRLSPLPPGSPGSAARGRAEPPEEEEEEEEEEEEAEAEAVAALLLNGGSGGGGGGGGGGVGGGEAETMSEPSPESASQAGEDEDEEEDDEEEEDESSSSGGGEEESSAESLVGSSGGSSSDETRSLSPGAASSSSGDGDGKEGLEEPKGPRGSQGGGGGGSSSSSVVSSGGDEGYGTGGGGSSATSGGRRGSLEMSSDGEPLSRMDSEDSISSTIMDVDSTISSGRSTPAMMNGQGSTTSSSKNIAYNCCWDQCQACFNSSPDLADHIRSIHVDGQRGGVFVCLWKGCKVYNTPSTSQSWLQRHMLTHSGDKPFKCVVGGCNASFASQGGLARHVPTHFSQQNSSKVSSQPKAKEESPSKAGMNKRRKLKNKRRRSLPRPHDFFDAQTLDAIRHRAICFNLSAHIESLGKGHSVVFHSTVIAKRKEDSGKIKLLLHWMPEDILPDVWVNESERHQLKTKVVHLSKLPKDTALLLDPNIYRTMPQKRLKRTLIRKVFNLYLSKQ

For the compound `CCC(C)Oc1cc(C#N)cc(C(=O)NCc2c(C)cc(C)[nH]c2=O)c1C` (centres unmarked) [Example 44, 3-(sec-Butoxy)-5-cyano-N-((4,6-dimethyl-2-oxo-1,2-dihydropyridin-3-yl)methyl)-2-methylbenzamide], the IC50 worked out at 316 nM.

Turning to `CCC(C)Oc1cc(Br)cc(C(=O)NCc2c(C)cc(C)[nH]c2=O)c1C` (centres unmarked) [Example 20, 5-Bromo-3-(sec-butoxy)-N-((4,6-dimethyl-2-oxo-1,2-dihydropyridin-3-yl)methyl)-2-methylbenzamide], the IC50 is 13 nM.

`COc1cccc(C(=O)NCc2c(C)cc(C)[nH]c2=O)c1C` [Example 36, N-((4,6-dimethyl-2-oxo-1,2-dihydropyridin-3-yl)methyl)-3-methoxy-2-methylbenzamide] registered a half-inhibitory concentration (IC50) of 2500 nM.

The compound `CCCc1cc(C)[nH]c(=O)c1CNC(=O)c1cc(Br)cc(NC(C)C)c1C` [Example 1, 5-Bromo-2-methyl-3-[(1-methylethyl)amino]-N-[(6-methyl-2-oxo-4-propyl-1,2-dihydro-3-pyridinyl)methyl]benzamide] showed an IC50 of 501 nM.

On to `Cc1cc(Cc2ccccc2)c(CNC(=O)c2cc(Br)cc(NC(C)C)c2C)c(=O)[nH]1` [Example 4, 5-Bromo-2-methyl-3-[(1-methylethyl)amino]-N-{[6-methyl-2-oxo-4-(phenylmethyl)-1,2-dihydro-3-pyridinyl]methyl}benzamide], for which the midpoint of inhibition, the IC50, lay at 50 nM.

`Cc1cc(C)c(CNC(=O)c2cc(Cl)cc(OC(C)C)c2Cl)c(=O)[nH]1` [Example 24, 2,5-Dichloro-N-[(4,6-dimethyl-2-oxo-1,2-dihydro-3-pyridinyl)methyl]-3-[(1-methylethyl)oxy]benzamide]: inhibition was half-maximal at 250 nM (IC50). This IC50 is about 5-fold higher than that of the compound before.

With `Cc1cc(C)c(CNC(=O)c2cc(Cl)cc(NC(C)CO)c2C)c(=O)[nH]1` (centres unmarked) [Example 26, 5—Chloro-N-[(4,6-dimethyl-2-oxo-1,2-dihydro-3-pyridinyl)methyl]-3-[(2-hydroxy-1-methylethyl)amino]-2-methylbenzamide], the IC50 worked out at 1000 nM.

`CCCc1cc(C)[nH]c(=O)c1CNC(=O)c1cc(-c2ccc(N3CCN(C)CC3)nc2)cc(NC(C)C)c1C` [Example 2, 2-Methyl-3-[(1-methylethyl)amino]-N-[(6-methyl-2-oxo-4-propyl-1,2-dihydro-3-pyridinyl)methyl]-5-[6-(4-methyl-1-piperazinyl)-3-pyridinyl]benzamide] returned an IC50 of 40 nM.

Source of the values: patent US10478426B2, “Enhancer of Zeste Homolog 2 inhibitors” (GlaxoSmithKline LLC, priority 2012, dated 2019).
